Counter-ions that a name gives are not always drawn.
What was measured:
Type in all cases: cell-based
HCT 116 cell line = assay: Cell inhibition assay (SRB cell viability), HCT 116; conditions: Homo sapiens, IC50 range class, 72 h, read-out: Inhibitor Activity vs HCT 116 cell line
Experimental: (§1) The corresponding cancer cell lines (U937, HCT 116 and HUT) growing in log phase were harvested and seeded at 1000 cells/well (200 ul final volume) into 96-well tissue culture plates. Following 24 h of cell growth cells were treated with compounds (final concentration of 20 uM). Plates were then re-incubated for a further 72 h before a sulphorhodamine B (SRB) cell viability assay was conducted according to Skehan 1990 J Natl Canc Inst 82, 1107-1112.
(§2) Data were expressed as a percentage inhibition of the control, measured in the absence of inhibitor, as follows: — % inhibition=100−((S^i/S^o)×100) where S^i is the signal in the presence of inhibitor and S^o is the signal in the presence of DMSO.
(§3) IC50 values were determined by non-linear regression analysis, after fitting the results of eight data points to the equation for sigmoidal dose response with variable slope (% activity against log concentration of compound), using Graphpad Prism software.

HUT cell line = assay: Cell inhibition assay (SRB cell viability), HUT; conditions: IC50 range class, 72 h, read-out: Inhibitor Activity vs HUT cell line
Experimental: as §1, §2, §3

U937 cell line = assay: Cell inhibition assay (SRB cell viability), U937; conditions: Homo sapiens, U-937, IC50 range class, 72 h, read-out: Inhibitor Activity vs U937 cell line
Experimental: as §1, §2, §3

| SMILES | IC50 (HCT 116 cell line) | IC50 (HUT cell line) | IC50 (U937 cell line) |
| --- | --- | --- | --- |
| COc1cc2c(Oc3cccc(F)c3)ccnc2cc1OCC[C@H](N)C(=O)OC1CCCC1 [Example 5, (S)-2-Amino-4-[4-(3-fluoro-phenoxy)-6-methoxy-quinolin-7-yloxy]-butyric acid cyclopentyl ester] | > 5000 nM | 1000 to 5000 nM | 1000 to 5000 nM |
| COc1cc2c(Oc3ccccc3)ccnc2cc1OCC[C@H](N)C(=O)OC1CCCC1 [Example 7, (S)-2-Amino-4-(6-methoxy-4-phenoxy-quinolin-7-yloxy)-butyric acid cyclopentyl ester] | > 5000 nM | 1000 to 5000 nM | 1000 to 5000 nM |
| COc1ccc(Oc2ccnc3cc(OCC[C@H](N)C(=O)OC4CCCC4)c(OC)cc23)cc1 [Example 9, (S)-2-Amino-4-[6-methoxy-4-(4-methoxy-phenoxy)-quinolin-7-yloxy]-butyric acid cyclopentyl ester] | > 5000 nM | > 5000 nM | 1000 to 5000 nM |
| COc1cc2c(Oc3ccc(-c4ccccc4)cc3)ccnc2cc1OCC[C@H](N)C(=O)OC1CCCC1 [Example 11, (S)-2-Amino-4-[4-(biphenyl-4-yloxy)-6-methoxy-quinolin-7-yloxy]-butyric acid cyclopentyl ester] | 1000 to 5000 nM | 1000 to 5000 nM | 1000 to 5000 nM |
| COc1cc2c(Oc3ccc4sc(C)nc4c3)ccnc2cc1OCC[C@H](N)C(=O)OC1CCCC1 [Example 12, (S)-2-Amino-4-[6-methoxy-4-(2-methyl-benzothiazol-5-yloxy)-quinolin-7-yloxy]-butyric acid cyclopentyl ester] | > 5000 nM | > 5000 nM | 1000 to 5000 nM |
| COc1cc2c(Oc3ccc4cccnc4c3)ccnc2cc1OCC[C@H](N)C(=O)OC1CCCC1 [Example 14, (S)-2-Amino-4-[6-methoxy-4-(quinolin-7-yloxy)-quinolin-7-yloxy]-butyric acid cyclopentyl ester] | 1000 to 5000 nM | 1000 to 5000 nM | < 1000 nM |
| COc1cc2c(Nc3cnn(CC(=O)Nc4ccccc4)c3)ccnc2cc1OCC[C@H](N)C(=O)OC1CCCC1 [Example 22, (S)-2-Amino-4-[6-methoxy-4-(1-phenylcarbamoylmethyl-1H-pyrazol-4-ylamino)-quinolin-7-yloxy]-butyric acid cyclopentyl ester] | > 5000 nM | > 5000 nM | 1000 to 5000 nM |
| COc1cc2c(Nc3cnn(CC(=O)Nc4cccc(F)c4)c3)ccnc2cc1OCC[C@H](N)C(=O)OC1CCCC1 [Example 24, (S)-2-Amino-4-(4-{1-[(3-fluoro-phenylcarbamoyl)-methyl]-1H-pyrazol-4-ylamino}-6-methoxy-quinolin-7-yloxy)-butyric acid cyclopentyl ester] | > 5000 nM | > 5000 nM | > 5000 nM |
| COc1cc2c(Nc3cnc(NC(=O)c4ccccc4)nc3)ccnc2cc1OCC[C@H](N)C(=O)OC1CCCC1 [Example 25, (S)-2-Amino-4-[4-(2-benzoylamino-pyrimidin-5-ylamino)-6-methoxy-quinolin-7-yloxy]-butyric acid cyclopentyl ester] | 1000 to 5000 nM | 1000 to 5000 nM | 1000 to 5000 nM |
| COc1cc2c(Nc3cnc(NC(=O)c4ccccc4)nc3)ncnc2cc1OCC[C@H](N)C(=O)OC1CCCC1 [Example 31, (S)-2-Amino-4-[4-(2-benzoylamino-pyrimidin-5-ylamino)-6-methoxy-quinazolin-7-yloxy]-butyric acid cyclopentyl ester] | > 5000 nM | > 5000 nM | > 5000 nM |
| COc1cc2c(Nc3ccc(NC(=O)c4ccccc4)cc3)c(Br)cnc2cc1OCC[C@H](N)C(=O)OC1CCCC1 [Example 33, Dihydrochloride] | > 5000 nM | 1000 to 5000 nM | 1000 to 5000 nM |
| COc1cc2c(Oc3ccc(NC(=O)c4ccccc4)cc3)ccnc2cc1OCC[C@H](NCC(C)C)C(=O)OC1CCCC1 [Example 37, (S)-4-[4-(4-Benzoylamino-phenoxy)-6-methoxy-quinolin-7-yloxy]-2-isobutylamino-butyric acid cyclopentyl ester] | 1000 to 5000 nM | 1000 to 5000 nM | < 1000 nM |
| CCN[C@@H](CCOc1cc2nccc(Oc3ccc(NC(=O)c4ccccc4)cc3)c2cc1OC)C(=O)OC1CCCC1 [Example 38, (S)-4-[4-(4-Benzoylamino-phenoxy)-6-methoxy-quinolin-7-yloxy]-2-ethylamino-butyric acid cyclopentyl ester] | 1000 to 5000 nM | 1000 to 5000 nM | < 1000 nM |
| COc1cc2c(Oc3ccc(NC(=O)c4ccccc4)cc3)ccnc2cc1OCC[C@H](NC1CCCCC1)C(=O)OC1CCCC1 [Example 39, (S)-4-[4-(4-Benzoylamino-phenoxy)-6-methoxy-quinolin-7-yloxy]-2-cyclohexylamino-butyric acid cyclopentyl ester] | > 5000 nM | > 5000 nM | 1000 to 5000 nM |
| COc1cc2c(Oc3ccc(NC(=O)c4ccccc4)cc3)ccnc2cc1OCC[C@H](NCc1ccccc1)C(=O)OC1CCCC1 [Example 40, (S)-4-[4-(4-Benzoylamino-phenoxy)-6-methoxy-quinolin-7-yloxy]-2-benzylamino-butyric acid cyclopentyl ester] | 1000 to 5000 nM | 1000 to 5000 nM | < 1000 nM |
| CCN(CC)[C@@H](CCOc1cc2nccc(Oc3ccc(NC(=O)c4ccccc4)cc3)c2cc1OC)C(=O)OC1CCCC1 [Example 41, (S)-4-[4-(4-Benzoylamino-phenoxy)-6-methoxy-quinolin-7-yloxy]-2-diethylamino-butyric acid cyclopentyl ester] | 1000 to 5000 nM | 1000 to 5000 nM | 1000 to 5000 nM |
| COc1cc2c(Oc3ccc(NC(=O)c4ccccc4)cc3)ccnc2cc1OCC[C@H](NC(=O)c1cccs1)C(=O)OC1CCCC1 [Example 44, (S)-4-[4-(4-Benzoylamino-phenoxy)-6-methoxy-quinolin-7-yloxy]-2-[(thiophene-2-carbonyl)-amino]-butyric acid cyclopentyl ester] | > 5000 nM | 1000 to 5000 nM | < 1000 nM |
| COc1cccc(CC(=O)N[C@@H](CCOc2cc3nccc(Oc4ccc(NC(=O)c5ccccc5)cc4)c3cc2OC)C(=O)OC2CCCC2)c1 [Example 45, (S)-4-[4-(4-Benzoylamino-phenoxy)-6-methoxy-quinolin-7-yloxy]-2-[2-(3-methoxy-phenyl)-acetylamino]-butyric acid cyclopentyl ester] | 1000 to 5000 nM | < 1000 nM | < 1000 nM |
| COc1cc2c(Oc3ccc(NC(=O)c4ccccc4)cc3)ccnc2cc1OCC[C@H](N)C(=O)OC1CCC(C)C1 (stereo partly drawn) [Example 46, (S)-2-Amino-4-[4-(4-benzoylamino-phenoxy)-6-methoxy-quinolin-7-yloxy]-butyric acid 3-methyl-cyclopentyl ester] | < 1000 nM | < 1000 nM | < 1000 nM |
| COc1cc2c(Oc3ccc(NC(=O)c4ccccc4)cc3)ccnc2cc1OCC[C@H](N)C(=O)OC12CCC(CC1)C2 [Example 47, (S)-2-Amino-4-[4-(4-benzoylamino-phenoxy)-6-methoxy-quinolin-7-yloxy]-butyric acid bicyclo[2.2.1]hept-1-yl ester] | < 1000 nM | < 1000 nM | < 1000 nM |
| COc1cc2c(Oc3ccc(NC(=O)c4ccccc4)cc3)ccnc2cc1OCC[C@H](N)C(=O)OC1CCCCC1 [Example 48, (S)-2-Amino-4-[4-(4-benzoylamino-phenoxy)-6-methoxyquinolin-7-yloxy]-butyric acid cyclohexyl ester] | < 1000 nM | < 1000 nM | < 1000 nM |
| COc1cc2c(Oc3ccc(NC(=O)c4ccccc4)cc3)ccnc2cc1OCC[C@H](N)C(=O)OC1CCCC1C (stereo partly drawn) [Example 49, (S)-2-Amino-4-[4-(4-benzoylamino-phenoxy)-6-methoxy-quinolin-7-yloxy]-butyric acid 2-methyl-cyclopentyl ester] | < 1000 nM | < 1000 nM | < 1000 nM |
| CCOC(=O)[C@@H](N)CCOc1cc2nccc(Oc3ccc(NC(=O)c4ccccc4)cc3)c2cc1OC [Example 51, (S)-2-Amino-4-[4-(4-benzoylamino-phenoxy)-6-methoxy-quinolin-7-yloxy]-butyric acid Ethyl ester] | < 1000 nM | < 1000 nM | < 1000 nM |
| COc1cc2c(Oc3ccc(NC(=O)c4ccccc4)cc3)ccnc2cc1OCC[C@H](N)C(=O)OCc1ccccc1 [Example 52, (S)-2-Amino-4-[4-(4-benzoylamino-phenoxy)-6-methoxy-quinolin-7-yloxy]-butyric acid benzyl ester] | < 1000 nM | < 1000 nM | < 1000 nM |
| COc1cc2c(Oc3ccc(NC(=O)c4ccccc4F)cc3)ccnc2cc1OCC[C@H](N)C(=O)OC1CCCC1 [Example 61, (S)-2-Amino-4-{4-[4-(2-fluoro-benzoylamino)-phenoxy]-6-methoxy-quinolin-7-yloxy}-butyric acid cyclopentyl ester] | < 1000 nM | < 1000 nM | < 1000 nM |
| COc1cc2c(Oc3ccc(NC(=O)c4ccc(F)cc4)cc3)ccnc2cc1OCC[C@H](N)C(=O)OC1CCCC1 [Example 63, (S)-2-Amino-4-{4-[4-(4-fluoro-benzoylamino)-phenoxy]-6-methoxy-quinolin-7-yloxy}-butyric acid cyclopentyl ester] | < 1000 nM | < 1000 nM | < 1000 nM |

— patent US8148531B2 (Chroma Therapeutics Ltd., priority 2005, dated 2012)
